We go through 6 molecules from patent US20110281804A1, “PEPTIDIC AND PEPTIDOMIMETIC COMPOUNDS FOR REGULATING AUTOPHAGY” (FONDAZIONE SANTA LUCIA, priority 2008, published 2011).

One series deals with AMBRA1-DIC interaction. In words: Co-immunoprecipitation of AMBRA1 with dynein intermediate chain (DIC) after microtubule disruption. Format: cell-based, human. Conditions: drugs which interfere with microtubule polymerisation. As for the experimental part: To this end, coimmunoprecipitation experiments were performed in 2F cells, using an antibody specific for the dynein intermediate chain (DIC). It was observed that, under control conditions, AMBRA1 is associated with DIC and is therefore part of the wider dynein machinery (FIG. 2b, third lane). […] DIC immunodepletion experiments confirmed that AMBRA1 is still associated with DLC1 after being released from DIC. On the other hand, only a fraction of DLC1 interacts with AMBRA1, since most DLC1 is still present in the complex, where it plays alternative functions (FIG. 2b).
It was then checked whether disruption of the microtubule network could interfere with the dynamics of AMBRA1 binding to the dynein motor complex.
In immunoprecipitation experiments, cells or tissues were lysed in HEMG buffer (25 mM Hepes pH 8.0, 100 mM NaCl, 25 mM MgCl2, 0.5% Triton X-100, 0.1 mM EDTA 10% glycerol) plus protease and phosphatase inhibitors (Protease inhibitor cocktail plus 1mM Sodium Fluoride, 1 mM Sodium orthovanadate, 1 mM Sodium molibdate; Sigma-Aldrich). […]

For the next series, the target named is MyD88 (Homo sapiens, UniProt Q99836). Conditions: Loiarro et al., J. Leukocyte Biology 2007; cited from earlier work.
MyD88, sequence (Q99836 whole entry, species assumed): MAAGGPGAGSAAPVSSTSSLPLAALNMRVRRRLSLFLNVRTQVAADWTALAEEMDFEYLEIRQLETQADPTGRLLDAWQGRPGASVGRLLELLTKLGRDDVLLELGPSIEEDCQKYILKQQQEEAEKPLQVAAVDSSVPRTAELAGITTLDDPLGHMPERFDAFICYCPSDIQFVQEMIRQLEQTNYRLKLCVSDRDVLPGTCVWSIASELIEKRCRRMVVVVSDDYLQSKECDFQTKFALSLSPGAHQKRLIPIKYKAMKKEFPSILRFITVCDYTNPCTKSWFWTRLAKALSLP
Another series has as its system HEK293 cells. The series is described as follows: Autophagy induction by peptides in HEK293 cells, Western blot of LC3 and p62. Format: cell-based. Particulars: 1-16 hours; for level of autophagy induced by the treatment: peptide 100-200 μM in culture medium, Western blot of LC3 and p62. From the text: In order to deregulate the AMBRA1-DLC1 interaction, three peptides (SEQ ID NO:1, SEQ ID NO:2 and SEQ ID NO:3) were selected for their likelihood to maintain the α-helix structure. SEQ ID NO:3 and SEQ ID NO:1 presented substitutions of the neutral residues of leucine into lysine, to increase the charge of the peptides (FIG. 5). The three peptides were synthesized in vitro with the addition of 11 arginine residues at the N-terminus and they were covalently conjugated with the FITC fluorochrome. The arginine residues allow an efficient incorporation of the peptides within the cells, whereas the FITC allows visualization of the peptides inside the cells and permit to monitor their stability upon time. Increasing doses of the peptides, respectively SEQ ID NO:3, SEQ ID NO:1 and SEQ ID NO:2 (100-200 μM) were added to the culture medium of HEK293 cells for increasing time (1-16 hours). The level of autophagy induced by the treatment was monitored by Western blot analyses of known markers of this process, such as LC3 and p62. […] Although limited, this effect is somewhat more desirable than stronger effects, because it avoids massive autophagy that would likely results in cell death in vivo.
Proteins were separated on NuPAGE Bis-Tris gel (Invitrogen) and electroblotted onto nitrocellulose (Protran, Schleicher & Schuell) or PVDF (Millipore) membranes. Blots were incubated with primary antibodies in 5% non-fat dry milk in TBS plus 0,1% Tween20 overnight at 4° C. Detection was achieved using horseradish peroxidase-conjugate secondary antibody (Biorad) and visualised with ECL plus (Amersham Bioscience).
For orientation: In western blotting, separated proteins are transferred to a membrane and probed.

In series [1] the target is AMBRA1 full length (human, wild type) (UniProt Q9C0C7).
AMBRA1 full length (human, wild type), sequence (Q9C0C7 other isoform, or with tags, fused parts or gaps): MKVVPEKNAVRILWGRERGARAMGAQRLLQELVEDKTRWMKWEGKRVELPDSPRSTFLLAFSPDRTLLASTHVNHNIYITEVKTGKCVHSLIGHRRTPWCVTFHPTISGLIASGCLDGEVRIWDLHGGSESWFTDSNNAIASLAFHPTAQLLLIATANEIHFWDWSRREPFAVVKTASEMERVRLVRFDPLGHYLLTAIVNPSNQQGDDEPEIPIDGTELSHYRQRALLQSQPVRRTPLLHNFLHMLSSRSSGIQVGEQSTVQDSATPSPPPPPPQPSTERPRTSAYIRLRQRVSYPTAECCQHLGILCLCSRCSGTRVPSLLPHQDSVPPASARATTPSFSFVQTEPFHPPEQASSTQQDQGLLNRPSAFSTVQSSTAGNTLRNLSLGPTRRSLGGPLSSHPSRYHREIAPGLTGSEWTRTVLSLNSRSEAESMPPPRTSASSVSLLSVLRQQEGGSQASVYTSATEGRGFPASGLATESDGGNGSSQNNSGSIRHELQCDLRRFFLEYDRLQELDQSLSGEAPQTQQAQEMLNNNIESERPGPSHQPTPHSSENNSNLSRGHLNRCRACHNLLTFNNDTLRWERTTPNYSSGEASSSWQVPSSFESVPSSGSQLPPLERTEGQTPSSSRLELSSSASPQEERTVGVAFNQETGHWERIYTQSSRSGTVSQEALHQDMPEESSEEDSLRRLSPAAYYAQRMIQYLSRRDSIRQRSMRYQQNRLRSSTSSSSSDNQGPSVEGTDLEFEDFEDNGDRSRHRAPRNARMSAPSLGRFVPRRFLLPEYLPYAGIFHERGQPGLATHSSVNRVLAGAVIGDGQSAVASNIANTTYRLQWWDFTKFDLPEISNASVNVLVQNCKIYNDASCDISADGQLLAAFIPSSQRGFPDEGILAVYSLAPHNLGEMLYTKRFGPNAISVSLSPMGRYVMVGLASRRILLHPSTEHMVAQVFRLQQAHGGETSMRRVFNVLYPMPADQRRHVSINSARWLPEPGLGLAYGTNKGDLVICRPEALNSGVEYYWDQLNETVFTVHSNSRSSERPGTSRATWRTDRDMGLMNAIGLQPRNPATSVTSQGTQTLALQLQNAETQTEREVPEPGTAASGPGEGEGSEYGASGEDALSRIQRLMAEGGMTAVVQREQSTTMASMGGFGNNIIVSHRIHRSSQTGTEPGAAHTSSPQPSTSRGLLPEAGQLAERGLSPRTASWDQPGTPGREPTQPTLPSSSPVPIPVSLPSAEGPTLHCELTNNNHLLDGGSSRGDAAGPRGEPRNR

Turning to `COC(=O)Nc1nc2ccc(C(=O)c3cccs3)cc2[nH]1` [Nocodazole], in the series with AMBRA1-DIC interaction, the AMBRA1-DIC interaction result is reported as “did not impair”.

Turning to `NC(=O)[C@H]1CCS[C@@H]2C[C@]3(CCCN3C(=O)Cc3ccc(NC(=O)COc4ccc(Cl)cc4Cl)cc3)C(=O)N12` [ST2825], the “activity and specificity of inhibition compared with the original MyD88 inhibitory peptide” value at MyD88 is “maintained the same activity and specificity of inhibition”.

As to `CC[C@]1(O)C[C@@H]2CN(CCc3c([nH]c4ccccc34)[C@@](C(=O)OC)(c3cc4c(cc3OC)N(C)[C@H]3[C@@](O)(C(=O)OC)[C@H](OC(C)=O)[C@]5(CC)C=CCN6CC[C@]43[C@@H]65)C2)C1` [Vinblastine], the AMBRA1-DIC interaction entry in the series with AMBRA1-DIC interaction is “did not impair”.

As to “SEQ ID NO:1: Peptide with TQT triplet followed by α-helix residues; leucine residues substituted into lysine to increase charge (SQGTQTKAKQK; listed as Homo sapiens)”, in the series on HEK293 cells (100-200 μM, Western blot (FIG. 6A)), the p62 protein levels result is given as “decrease”. Moreover, the “shorter isoform of LC3” value with HEK293 cells (100-200 μM, Western blot (data not shown)) was “increase”. In addition, in the series on HEK293 cells, the “level of autophagy induced by the treatment” value is on record as “induced an increase in autophagy”.

Turning to “SEQ ID NO:3: Peptide selected to maintain α-helix structure; leucine residues substituted into lysine to increase charge (TQTKAKQKQNAETQTER; listed as Homo sapiens)”, in the series on HEK293 cells, the “level of autophagy induced by the treatment” value is “not so effective at the doses used”.

Turning to “ULK1 wild type, myc-tagged (immunopurified complex)”, in series [1], the “in vitro kinase assay (32P labelling, autoradiography)” value was “AMBRA1 is phosphorylated by an ULK1 immunopurified complex”.
